From patent US20110217300A1, “Quinazolinone Compounds and Methods of Use Thereof” (priority 2007, published 2011)

How the values were obtained:
Test in all cases: MTS cell viability assay
Assay type in all cases: cell-based
[1] = system: DU145; conditions: prostate
Experimental: (§1) Cell viability was determined by measuring the activity of dehydrogenase enzymes in metabolically active cells using a tetrazolium compound, MTS. The assay was performed as described in Promega Technical Bulletin No. 169 (CellTiter 96 Aqueous Non-Radioactive Cell Proliferation Assay). Two human cancer cell lines were assayed (see, Table 1). Cells were maintained at 37° C. and 5% CO2 in DMEM media (4.5 g/L glucose) supplemented with 10% heat-inactivated FBS, 10 mM L-glutamine, and 10 mM Hepes pH 7.5. Briefly, cells were seeded in 96-well plates as set forth in Table 1 and incubated for 16-24 hours. Candidate compounds were serially diluted in DMSO, further diluted in cell culture media, and then added to cells (final DMSO concentration of 0.33%). Cells were incubated in the presence of candidate compound for 72 hours. MTS stock solution (MTS 2 gm/L, PMS […] in PBS) was added to the cells (final concentration MTS […] and PMS 7.67 mg/L) and incubated for 4 hours. SDS was added to a final concentration of 1.4% and absorbance at 490 nm was measured within two hours using a plate reader. […] GI50 values were given in Table 2 for the compounds listed. The Compound Numbers in Table 2 correspond to the numbers listed parenthetically in the Example titles. Where multiple measurements were made by different technicians, both values are given.
(§2) Cell viability was determined for N-(3-amino-propyl)-3-chloro-N—[(R)-1-(7-chloro-4-oxo-3-phenylamino-3,4-dihydro-quinazolin-2-yl)-but-3-ynyl]-2-fluoro-benzamide (compound I of Table 2). The cell viability assay of Example 105 was used. GI50 was determined using a variety of cell lines. Cells were plated at 100-5000 cells per well. At least 2 replicates were performed. Where multiple measurements were made by different technicians, both values are given.

[2] = system: HT-1080; conditions: Homo sapiens, Fibrosarcoma
Experimental: as §1, §2

[3] = system: NTERA-2 c1. D1; conditions: NTERA2, Testis pluripotent embryonal carcinoma
Experimental: as §1, §2

[4] = system: HPAF-II; conditions: Homo sapiens, pancreas
Experimental: as §1, §2

[5] = system: MDA-MB-231; conditions: Breast adenocarcinoma
Experimental: as §1, §2

[6] = system: THP-1; conditions: Homo sapiens, Acute monocytic leukemia
Experimental: as §1, §2

[7] = system: NCI-H1993; conditions: Lung adenocarcinoma
Experimental: as §1, §2

[8] = system: A427; conditions: Homo sapiens, A-427, Lung Carcinoma
Experimental: as §1, §2

[9] = system: HEC1A; conditions: Homo sapiens, HEC-1-A, endometrial
Experimental: as §1, §2

[10] = system: NCI-H1299; conditions: Homo sapiens, Non-small cell lung carcinoma
Experimental: as §1, §2

[11] = system: HCT-15; conditions: Homo sapiens, colon
Experimental: as §1, §2

[12] = system: SNU-16; conditions: Homo sapiens, Gastric Carcinoma
Experimental: as §1, §2

[13] = system: WIDR; conditions: Homo sapiens, Colorectal adenocarcinoma
Experimental: as §1, §2

[14] = system: BDCM; conditions: Lymphoblast
Experimental: as §1, §2

[15] = system: NCI-H358; conditions: Homo sapiens, Non-small cell lung cancer, brancioalveolar carcinoma
Experimental: as §1, §2

[16] = system: CCS292; conditions: Clear cell Sarcoma
Experimental: as §1, §2

[17] = system: A-375; conditions: Homo sapiens, Malignant melanoma
Experimental: as §1, §2

[18] = system: RT-112; conditions: Human urinary bladder cell carcinoma
Experimental: as §1, §2

[19] = system: NCI-H526; conditions: Homo sapiens, Lung carcinoma, variant small cell lung cancer
Experimental: as §1, §2

[20] = system: NCI-H661; conditions: Homo sapiens, Large cell Lung Cancer
Experimental: as §1, §2

[21] = system: HCT-116; conditions: Homo sapiens, colon
Experimental: as §1, §2

[22] = system: SK-MEL-28; conditions: Malignant melanoma
Experimental: as §1, §2

[23] = system: MCF-7; conditions: breast
Experimental: as §1, §2

[24] = system: CALU-6; conditions: Homo sapiens, lung
Experimental: as §1, §2

[25] = system: ASPC-1; conditions: Homo sapiens, ASPC1, pancreas
Experimental: as §1, §2

[26] = system: LoVo; conditions: Homo sapiens, Colorectal Carcinoma
Experimental: as §1, §2

[27] = system: U937; conditions: Homo sapiens, U-937, Monocyte Histocytic Lymphoma
Experimental: as §1, §2

[28] = system: RT-4; conditions: Human urinary bladder cell carcinoma
Experimental: as §1, §2

[29] = system: MIA-PaCa2; conditions: Homo sapiens, MIA PaCa-2, Pancreas
Experimental: as §1, §2

[30] = system: PLC/PRF/5; conditions: Homo sapiens, liver
Experimental: as §1, §2

[31] = system: SNU-1; conditions: Homo sapiens, SNU1, Stomach
Experimental: as §1, §2

[32] = system: SKMES-1; conditions: Homo sapiens, SK-MES-1, Squamous cell carcinoma
Experimental: as §1, §2

## C#CC[C@H](c1nc2cc(Cl)ccc2c(=O)n1Nc1ccccc1)N(CCCN)C(=O)c1cccc(Cl)c1F [Compound 1, N-(3-Amino-propyl)-3-chloro-N—[(R)-1-(7-chloro-4-oxo-3-phenylamino-3,4-dihydro-quinazolin-2-yl)-but-3-ynyl]-2-fluoro-benzamide]
[1]; DU145, listed as I
  GI50: 304 nM
[1]; Homo sapiens, DU-145, DU145
  GI50: 303 nM
[2]
  GI50: 149 nM
[3]
  GI50: 63 nM
[4]
  GI50: 2060 nM
[5]; Homo sapiens, MDA-MB-231, MDA-MB-231
  GI50: 359 nM
[5]; MDA-MB-231, listed as I
  GI50: 249 nM
[6]
  GI50: 226 nM
[7]; Homo sapiens, NCI-H1993, NCI-H1993
  GI50: 2420 nM
[7]; NCI-H1993, listed as I
  GI50: 1660 nM
[8]
  GI50: 64 nM
[9]
  GI50: 316 nM
[10]
  GI50: 549 nM
[11]
  GI50: 3020 nM
[12]
  GI50: 136 nM
[13]
  GI50: 783 nM
[14]
  GI50: 207 nM
[15]
  GI50: 190 nM
[16]
  GI50: 833 nM
[17]
  GI50: 766 nM
[18]
  GI50: 53 nM
[19]
  GI50: 125 nM
[20]
  GI50: 109 nM
[21]
  GI50: 74 nM
[22]; Homo sapiens, SK-MEL-28, SK-MEL-28
  GI50: 2160 nM
[22]; SK-MEL-28, listed as I
  GI50: 3130 nM
[23]; Homo sapiens, MCF7, MCF-7
  GI50: 5080 nM
[23]; MCF-7, listed as I
  GI50: 4830 nM
[24]
  GI50: 105 nM
[25]
  GI50: 549 nM
[26]
  GI50: 359 nM
[27]
  GI50: 155 nM
[28]
  GI50: 368 nM
[29]
  GI50: 259 nM
[30]
  GI50: 135 nM
[31]
  GI50: 552 nM
[32]
  GI50: 1000 nM
